System: F98 glioma
Test: Surviving assay in Fischer rats implanted with F98 glioma, intra carotid drug delivery with or without Gamma Knife irradiation
Type: in vivo
Details: F98 glioma-bearing Fischer rats, 1 ml/rat intra-carotid 10 days after implantation; LipoGold with 15 Gy Gamma Knife 8 h later; FIG. 6

Compound | life span / surviving time
N.N.[Cl][Pt][Cl] [cisplatin, cis-diammineplatinum(II) dichloride] | died before sham animals
O=C1[O][Pt]2([NH][C@@H]3CCCC[C@H]3[NH]2)[O]C1=O [oxaliplatin] | short life span, similar to sham animals
